One series addresses CHK1 (Homo sapiens (Human), UniProt O14757). The experiment in a line: CHK1 inhibitory activity test (IMAP TR-FRET). The note with it: for effect of suppressing CHK1 activity (in words): compared with prexasertib; for inhibition at 0.0001 µM: read-out: CHK1 inhibition % at 0.1 nM. The series is classed as biochemical. The protocol:
IMAP TR-FRET Screening Express Kit (R8160) was obtained from Molecular Devices. […] FAM-PKAtide (R7255, Molecular Devices) and FAM-Phospho-PKAtide (R7304, Molecular Devices) were admixed after dilution, and calibration standard systems for phosphorylation levels from 0 to 100% were created. 5 μL of a compound dissolved in a 0.4% DMSO solution was added to a 384 well plate. A compound study group to which 5 μL of each of CHK1, CHK1tide, and ATP was added, and a standard group to which 20 μL of standard was added were created, and subjected to a kinase reaction for 3 hours at 30° C. Subsequently, 60 μL of Binding Reagent (80% Buffer A, 20% Buffer B, 1:600 Binding Reagent, 1:400 Tb-Donor) was added for a binding reaction for 2 hours at room temperature.
In general terms: Time-resolved FRET reads energy transfer from a long-lived donor to a nearby acceptor.

A further series deals with ES-2 cells. Put plainly: Cell growth suppression experiment. The conditions noted are these: for IC50: Homo sapiens, 48 h, cultured for 2 days, read-out: IC50 (cell growth suppression, ranking); for cell growth suppression effect (in words): compared with prexasertib. The series is classed as cell-based. The protocol:
ES-2 cells were obtained from the American Type Culture Collection (ATCC). These cells were cultured at 37° C. in the presence of 5% CO2 in a 10% fetal bovine serum, […] penicillin/streptomycin containing McCoy's 5a medium.
500 cells were seeded for each well in a 384-well plate, and the evaluated compound was added so that the final concentration of DMSO would be 0.1% to culture the cells for 2 days. After completion of the culture, the cell viability rate was calculated using CellTiter-Glo® 3D Reagent (Promega, G968B).

The target in a further series is CYP3A4 (Homo sapiens (Human), UniProt P08684). Put plainly: CYP3A4 MBI and enzyme inactivation clearance evaluation. The series is classed as in vitro ADME. The conditions noted are these: human liver microsome; for microsomal CLint: liver microsomes, probe midazolam or testosterone; for Factor of change in IC50 value: by pre-incubation with NADPH, MBI action when 2-fold or greater. The protocol: The effect and mode of inhibition of the test compound on CYP3A4 were evaluated using a human liver microsome as an enzyme source and midazolam or testosterone as a substrate. […] The IC50 value was calculated from a concentration plot.
Sequence of CYP3A4 (P08684 whole entry): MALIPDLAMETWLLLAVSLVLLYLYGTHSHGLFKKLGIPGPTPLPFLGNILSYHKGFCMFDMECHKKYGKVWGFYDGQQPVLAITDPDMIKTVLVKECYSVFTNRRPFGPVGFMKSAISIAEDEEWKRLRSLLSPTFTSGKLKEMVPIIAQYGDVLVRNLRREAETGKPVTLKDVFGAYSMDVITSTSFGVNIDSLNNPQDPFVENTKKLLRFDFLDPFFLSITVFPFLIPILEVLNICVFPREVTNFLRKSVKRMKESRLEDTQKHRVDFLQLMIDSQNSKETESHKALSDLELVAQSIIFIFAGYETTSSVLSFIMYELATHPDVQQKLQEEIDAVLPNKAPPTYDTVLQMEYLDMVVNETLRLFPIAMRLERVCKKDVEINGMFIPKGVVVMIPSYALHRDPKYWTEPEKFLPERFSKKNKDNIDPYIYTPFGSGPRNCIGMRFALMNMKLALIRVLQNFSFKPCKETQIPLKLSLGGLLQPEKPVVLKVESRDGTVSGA
(Microsomes from liver hold many membrane-bound enzymes, among them those of drug oxidation.)

Another series concerns the target hERG current (Homo sapiens (Human), UniProt Q12809). The experiment in a line: hERG current blocking test. The note with it: for hERG/CHK1: IC50 of hERG divided by IC50 of CHK1 inhibition of Test Example 1; for IC50: read-out: hERG inhibition IC50, hERG stably expressing CHO cells, Qube384. Background: hERG is a cardiac potassium channel; its block is linked to QT prolongation.

For another series, the target named is hERG (Homo sapiens (Human), UniProt Q12809). The experiment in a line: in vitro. The note with it: CHO cells stably expressing hERG.
Sequence of hERG (Q12809 whole entry): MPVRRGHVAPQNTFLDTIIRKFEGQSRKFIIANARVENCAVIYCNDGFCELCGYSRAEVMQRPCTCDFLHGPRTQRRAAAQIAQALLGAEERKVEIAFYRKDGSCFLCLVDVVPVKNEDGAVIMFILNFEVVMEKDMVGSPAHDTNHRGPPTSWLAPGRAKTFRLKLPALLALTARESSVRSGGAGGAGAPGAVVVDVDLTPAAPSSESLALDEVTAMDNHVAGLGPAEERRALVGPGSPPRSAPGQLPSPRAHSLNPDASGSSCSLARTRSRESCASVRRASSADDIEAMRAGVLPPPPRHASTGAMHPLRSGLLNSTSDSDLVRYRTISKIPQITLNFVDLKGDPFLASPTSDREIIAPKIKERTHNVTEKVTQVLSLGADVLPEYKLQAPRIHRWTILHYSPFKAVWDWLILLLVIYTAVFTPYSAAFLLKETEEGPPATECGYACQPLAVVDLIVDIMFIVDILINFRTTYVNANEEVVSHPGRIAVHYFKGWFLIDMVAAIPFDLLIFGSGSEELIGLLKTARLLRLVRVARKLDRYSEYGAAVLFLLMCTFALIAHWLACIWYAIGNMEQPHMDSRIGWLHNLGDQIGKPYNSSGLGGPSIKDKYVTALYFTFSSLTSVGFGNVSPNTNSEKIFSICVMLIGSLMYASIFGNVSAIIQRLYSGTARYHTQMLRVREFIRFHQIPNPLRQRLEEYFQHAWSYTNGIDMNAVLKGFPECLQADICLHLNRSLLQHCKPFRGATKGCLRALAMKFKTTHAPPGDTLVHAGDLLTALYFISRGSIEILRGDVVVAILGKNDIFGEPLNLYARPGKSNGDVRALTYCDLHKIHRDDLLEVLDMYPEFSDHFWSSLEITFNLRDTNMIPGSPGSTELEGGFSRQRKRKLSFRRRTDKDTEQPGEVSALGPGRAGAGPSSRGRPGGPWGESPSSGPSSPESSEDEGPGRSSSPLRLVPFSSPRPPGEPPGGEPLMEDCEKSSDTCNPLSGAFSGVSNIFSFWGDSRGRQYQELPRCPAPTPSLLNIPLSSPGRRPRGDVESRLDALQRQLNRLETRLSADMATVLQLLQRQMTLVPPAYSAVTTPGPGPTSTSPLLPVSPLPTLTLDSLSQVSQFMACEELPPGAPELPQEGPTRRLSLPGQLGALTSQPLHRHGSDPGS
A further series deals with neutrophil count. The experiment in a line: Measurement of neutrophil count using tumor-bearing mice transplanted with ES-2 cells (Test Example 17). The series is classed as in vivo. The note with it: 30 mg/kg, 14 days, 2 times/week; 96 hours after final administration. The protocol:
Blood was collected 96 hours after the final administration to measure the neutrophil count.
Ratio of residual neutrophils (%)=(neutrophil count of administration group 96 hours after administration)/(neutrophil count of control administration group 96 hours after administration)×100

Here are results for 13 compounds from US11564920B2, “5-heteroaryl-1H-pyrazol-3-amine derivative” (Sumitomo Pharma Co., Ltd., priority 2020, dated 2023).

Entries after “also recorded” stand apart in the source; their conditions may differ.

Sequence of hERG current (Q12809 whole entry): as above
Sequence of CHK1 (O14757 whole entry): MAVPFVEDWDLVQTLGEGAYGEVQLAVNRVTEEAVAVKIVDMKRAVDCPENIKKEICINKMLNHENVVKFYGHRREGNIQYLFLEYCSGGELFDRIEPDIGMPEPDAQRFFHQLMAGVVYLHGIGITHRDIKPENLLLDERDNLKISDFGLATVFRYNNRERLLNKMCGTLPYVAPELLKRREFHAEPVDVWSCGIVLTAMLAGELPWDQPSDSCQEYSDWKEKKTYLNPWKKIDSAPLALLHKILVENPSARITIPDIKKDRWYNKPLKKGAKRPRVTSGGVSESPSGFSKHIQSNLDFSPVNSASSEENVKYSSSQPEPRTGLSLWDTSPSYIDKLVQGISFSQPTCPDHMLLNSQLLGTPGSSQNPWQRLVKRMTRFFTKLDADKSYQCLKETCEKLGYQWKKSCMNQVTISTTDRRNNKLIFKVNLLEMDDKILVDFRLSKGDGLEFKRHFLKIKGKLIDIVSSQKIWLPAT
Method for hERG current: The test compounds were added to cultured hERG (human Ether-a-go-go Related Gene) gene stably expressing CHO cell line cells to achieve 0.27 to 100 μM.

Consider `COc1cncc(OC[C@@H]2CNCCO2)c1-c1cc(Nc2cnc(C#N)cn2)n[nH]1` (stereo in doubt) [Example 12, 5-[(5-{3-methoxy-5-[(morpholin-2-yl)methoxy]pyridin-4-yl}-1H-pyrazol-3-yl)amino]pyrazine-2-carbonitrile], for which, on CHK1, the “effect of suppressing CHK1 activity (in words)” value is recorded as “more potent effect of suppressing CHK1 activity than prexasertib” and the inhibition (commonly the change of the read-out against control, counted positive when it falls) at 0.0001 µM is 21%. Also, the IC50 (usually the concentration that inhibits the measured activity by half) in the series on ES-2 cells was 100 to 300 nM. Besides, at CYP3A4, the microsomal CLint (in general, the rate of metabolic loss divided by the concentration) amounted to 0.287 µL/min/mg. The hERG/CHK1 at hERG current came out at 9118.
As to `COc1cncc(OC[C@@]2(F)CCNC2)c1-c1cc(Nc2cnc(C#N)cn2)n[nH]1` [Example 22, (R)-5-[(5-{3-[(3-fluoropyrrolidin-3-yl)methoxy]-5-methoxypyridin-4-yl}-1H-pyrazol-3-yl)amino]pyrazine-2-carbonitrile], at CHK1, the “effect of suppressing CHK1 activity (in words)” value is given as “more potent effect of suppressing CHK1 activity than prexasertib” and the inhibition at 0.0001 µM was determined as 22%. Besides, in the series with ES-2 cells, the IC50 is less than 30 nM and the “cell growth suppression effect (in words)” value is “excellent cell growth suppression effect that is equivalent to that of prexasertib”. On CYP3A4, the microsomal CLint amounted to 0.349 µL/min/mg. Moreover, the hERG/CHK1 at hERG current is given as 12500.
Turning to `COc1nccc(OCC2(CO)CNC2)c1-c1cc(Nc2cnc(C#N)cn2)n[nH]1` [Example 8, 5-{[5-(4-{[3-(hydroxymethyl)azetidin-3-yl]methoxy}-2-methoxypyridin-3-yl)-1H-pyrazol-3-yl]amino}pyrazine-2-carbonitrile], at CHK1, the IC50 is less than 0.1 nM, the “effect of suppressing CHK1 activity (in words)” value is recorded as “more potent effect of suppressing CHK1 activity than prexasertib; also recorded: especially potently suppressing CHK1 activity” and the inhibition at 0.0001 µM was found to be 51%. In addition, the IC50 with ES-2 cells was in the range of 30 to 100 nM. Moreover, the “Factor of change in IC50 value” on CYP3A4 is on record as “Not Detected”. The selectivity ratio at hERG was no less than 100000. On hERG current, the hERG/CHK1 is listed as greater than 1000000 and the IC50 was greater than 100000 nM.
For `COc1ccnc(OCCCN)c1-c1cc(Nc2cnc(C(F)(F)F)cn2)n[nH]1` [Example 16, N-{5-[2-(3-aminopropoxy)-4-methoxypyridin-3-yl]-1H-pyrazol-3-yl}-5-(trifluoromethyl)pyrazin-2-amine], the inhibition at 0.0001 µM on CHK1 is less than 5%. Also, the IC50 with ES-2 cells is 300 to 1000 nM. At hERG current, the hERG/CHK1 was less than 888 and the IC50 was less than 2700 nM.
For the compound `COc1cncc(OC[C@]2(F)CCNC2)c1-c1cc(Nc2cnc(C#N)cn2)n[nH]1` [Example 20, (S)-5-[(5-{3-[(3-fluoropyrrolidin-3-yl)methoxy]-5-methoxypyridin-4-yl}-1H-pyrazol-3-yl)amino]pyrazine-2-carbonitrile], at CHK1, the “effect of suppressing CHK1 activity (in words)” value was “more potent effect of suppressing CHK1 activity than prexasertib” and the inhibition at 0.0001 µM amounted to 6%. In the series on ES-2 cells, the IC50 was less than 30 nM and the “cell growth suppression effect (in words)” value is recorded as “excellent cell growth suppression effect that is equivalent to that of prexasertib”. Moreover, the microsomal CLint at CYP3A4 is 1.11 µL/min/mg. The hERG/CHK1 at hERG current is 11176.
Take `Nc1ccn([C@@H]2O[C@H](CO)[C@@H](O)C2(F)F)c(=O)n1` [Gemcitabine]: the “Ratio of residual neutrophils” value with neutrophil count turned out to be 39%.
Turning to `COc1cncc(OC[C@H](F)CN)c1-c1cc(Nc2cnc(C#N)cn2)n[nH]1` [Example 30, 5-[(5-{3-[(2R)-3-amino-2-fluoropropoxy]-5-methoxypyridin-4-yl}-1H-pyrazol-3-yl)amino]pyrazine-2-carbonitrile], at CHK1, the “effect of suppressing CHK1 activity (in words)” value is given as “more potent effect of suppressing CHK1 activity than prexasertib” and the inhibition at 0.0001 µM was found to be 28%. Moreover, in the series with ES-2 cells, the IC50 was less than 30 nM and the “cell growth suppression effect (in words)” value is given as “excellent cell growth suppression effect that is equivalent to that of prexasertib”. Further, the “Factor of change in IC50 value” at CYP3A4 is “Not Detected”. The compound also returned a hERG/CHK1 on hERG current of 40000.
Turning to `COc1cncc(OC[C@H]2CNCCO2)c1-c1cc(Nc2cnc(C#N)cn2)n[nH]1` (stereo in doubt) [Example 13, 5-[(5-{3-methoxy-5-[(morpholin-2-yl)methoxy]pyridin-4-yl}-1H-pyrazol-3-yl)amino]pyrazine-2-carbonitrile], the inhibition at 0.0001 µM on CHK1 was found to be 6%. Besides, the values for the IC50 in the series with ES-2 cells and at hERG current were 300 to 1000 nM and less than 2700 nM, respectively. The microsomal CLint on CYP3A4 worked out at 0.484 µL/min/mg. The compound also came in with a hERG/CHK1 at hERG current of less than 3649.
For `COc1ccnc(OCC2(CN)CC2)c1-c1cc(Nc2cnc(C#N)cn2)n[nH]1` [Example 37, 5-{[5-(2-{[1-(aminomethyl)cyclopropyl]methoxy}-4-methoxypyridin-3-yl)-1H-pyrazol-3-yl]amino}pyrazine-2-carbonitrile], at CHK1, the “effect of suppressing CHK1 activity (in words)” value is reported as “more potent effect of suppressing CHK1 activity than prexasertib” and the inhibition at 0.0001 µM is 18%. Besides, in the series with ES-2 cells, the concentration for half-maximal inhibition (IC50) is less than 30 nM and the “cell growth suppression effect (in words)” value was “excellent cell growth suppression effect that is equivalent to that of prexasertib”. Moreover, at CYP3A4, the “Factor of change in IC50 value” was “Not Detected” and the “inhibition of CYP3A4 based on MBI (in words)” value is “do not exhibit inhibition of CYP3A4 based on MBI”. In addition, on hERG current, the hERG/CHK1 is listed as less than 8438 and the IC50 was less than 2700 nM.
Consider `COc1cncc(OCC2(C)CNC2)c1-c1cc(Nc2cnc(C#N)cn2)n[nH]1` [Example 25, 5-[(5-{3-methoxy-5-[(3-methylazetidin-3-yl)methoxy]pyridin-4-yl}-1H-pyrazol-3-yl)amino]pyrazine-2-carbonitrile], for which the inhibition at 0.0001 µM on CHK1 is less than 5%. Moreover, in the series with ES-2 cells, the IC50 is less than 30 nM and the “cell growth suppression effect (in words)” value is “excellent cell growth suppression effect that is equivalent to that of prexasertib”.
For `COc1cncc(O[C@H]2C[C@H](N)[C@H]3C[C@H]32)c1-c1cc(Nc2cnc(C#N)cn2)n[nH]1` [Example 36, 5-{[5-(3-{[(1R,2S,4S,5S)-4-aminobicyclo[3.1.0]hexan-2-yl]oxy}-5-methoxypyridin-4-yl)-1H-pyrazol-3-yl]amino}pyrazine-2-carbonitrile], in that order: less than 5%, less than 30 nM and “excellent cell growth suppression effect that is equivalent to that of prexasertib”.
As for `COc1cncc(OCC2(C(F)F)CNC2)c1-c1cc(Nc2cnc(C#N)cn2)n[nH]1` [Example 26, 5-{[5-(3-{[3-(difluoromethyl)azetidin-3-yl]methoxy}-5-methoxypyridin-4-yl)-1H-pyrazol-3-yl]amino}pyrazine-2-carbo nitrile], on CHK1, the “effect of suppressing CHK1 activity (in words)” value is given as “more potent effect of suppressing CHK1 activity than prexasertib” and the inhibition at 0.0001 µM worked out at 42%. Further, in the series on ES-2 cells, the IC50 was less than 30 nM and the “cell growth suppression effect (in words)” value is reported as “excellent cell growth suppression effect that is equivalent to that of prexasertib”.
On to `COc1cncc(OC[C@@H](F)CN)c1-c1cc(Nc2cnc(C#N)cn2)n[nH]1` [Example 29, 5-[(5-{3-[(2S)-3-amino-2-fluoropropoxy]-5-methoxypyridin-4-yl}-1H-pyrazol-3-yl)amino]pyrazine-2-carbonitrile], for which, in the series with ES-2 cells, the IC50 was less than 30 nM and the “cell growth suppression effect (in words)” value is on record as “excellent cell growth suppression effect that is equivalent to that of prexasertib”. In addition, at CYP3A4, the “Factor of change in IC50 value” is listed as “Not Detected” and the microsomal CLint came to 0.054 µL/min/mg. This compound also came in with a hERG/CHK1 on hERG current of 18667.
